Data reported in patent US5352680A, “Delta opioid receptor antagonists to block opioid agonist tolerance and dependence” (priority 1992, dated 1994).
Like-named read-outs stand apart in the source and are kept apart here.

Key:
[1] = test system: development of morphine tolerance in mice treated chronically with morphine; format: in vivo, mice (male Swiss-Webster); conditions: for increase of the ED50 of morphine sulfate vs control animals: antagonist together with morphine pellets; for effect on development of tolerance: with morphine pellets
Protocol: (§1) Male Swiss-Webster mice (BioLab, White Bear Lake, Minn.) weighing 20 to 25 g were used. The mice were rendered tolerant to and dependent on morphine by s.c. implantation of one morphine pellet (75 mg free base)/mouse for 3 days according to the procedure of E. L. Way et al., J. Pharmacol. Exp. Ther., 167, 1 (1969). Control animals were implanted with placebo pellets. Mice were anesthetized lightly with methoxyflurane during the implantation process. […] Chem. Pathol. Pharmacol., 16, 721 (1977).
At least 30 mice (10/group) and three to four dose levels were used to determine each ED50 value.
The ED50 values of morphine and their 95% CL were determined by the parallel line assay of D. J. Finney, Statistical Methods in Biological Assay, Hafner Pub. Co., N.Y. (2d ed. 1969) with the aid of a computer program which has the capability to analyze at the same time 12 lines (dose-response curves) and 6 points (dose levels) per line with log and probit transformations and 35 repetitions per point.
(§2) Mice were implanted with a single placebo (control) or morphine pellet (75 mg free base) for 3 days. NTI (10 pmol/mouse) was administered i.c.v. 90 min before and 24 and 48 hr after the morphine pellet implantation. 5'-NTII (10 nmol/mouse) was administered 24 hr before, at the same time as and 24 and 48 hr after the morphine pellet implantation.

[2] = test system: development of physical dependence in mice treated chronically with morphine; test: Naloxone-induced withdrawal jumping: physical dependence, mice treated chronically with morphine; format: in vivo, mice (male Swiss-Webster); conditions: with morphine pellet
Protocol: as §1, §2

delta opioid receptors [3] = molecular target: T1, delta opioid receptors (Mus musculus, UniProt P32300); test: Antagonism of delta opioid receptor agonists (DSLET) in vivo; set-up: species or system mice
T1 construct: from tissue; host or cells: living mouse, intracerebroventricular dosing (endogenous receptor)
T1 sequence (P32300 whole entry): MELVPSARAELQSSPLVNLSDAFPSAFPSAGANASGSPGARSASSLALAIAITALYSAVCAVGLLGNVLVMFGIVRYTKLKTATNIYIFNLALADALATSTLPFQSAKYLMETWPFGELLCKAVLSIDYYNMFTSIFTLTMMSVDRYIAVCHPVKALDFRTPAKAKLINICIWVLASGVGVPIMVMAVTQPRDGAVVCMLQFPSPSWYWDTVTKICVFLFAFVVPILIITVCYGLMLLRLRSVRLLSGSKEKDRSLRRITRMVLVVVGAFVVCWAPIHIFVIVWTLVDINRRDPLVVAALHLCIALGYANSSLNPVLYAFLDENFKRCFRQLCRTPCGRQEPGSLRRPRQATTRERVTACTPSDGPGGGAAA

mu opioid receptors = test: Effect on antinociceptive activity of the mu agonist DAMGO; format: in vivo, mice (male Swiss-Webster); conditions: NTI 10 pmol/mouse, once or twice; 5'-NTII 10 nmol/mouse 24 hr before DAMGO
Protocol: (§3) NTI (10 pmol/mouse) was administered 100 min before the i.c.v. injection of DAMGO and 20 min later, at the peak effect of DAMGO, the antinociceptive activity of the peptide was assessed. In another group of mice, NTI (10 pmol/mouse) was administered twice, once at 100 min before and again at the same time as the i.c.v. injection of DAMGO. 5'-NTII (10 nmol/mouse) was administered 24 hr before being tested with DAMGO.

mu opioid receptor [4] = test: Antagonism of mu opioid receptor agonists; format: in vivo; conditions: 10 nmol/mouse i.c.v., 24 hours
Protocol: as §3

kappa opioid receptor [5] = test: Antagonism of kappa opioid receptor agonists; format: in vivo; conditions: 10 nmol/mouse i.c.v., 24 hours
antinociceptive activity = test: Antinociceptive activity of the antagonist itself; format: in vivo, mice; conditions: for antinociceptive activity: mouse, in vivo
delta opioid receptors [6] = molecular target: T1, delta opioid receptors; conditions: previously reported; cited from earlier work
mu opioid receptor [7] = conditions: shown previously; cited from earlier work
kappa opioid receptor [8] = conditions: shown previously; cited from earlier work
delta opioid receptors [9] = conditions: shown previously; cited from earlier work
[10] = test system: development of morphine tolerance in mice treated acutely with morphine; format: in vivo, mice (male Swiss-Webster); conditions: NTI 10 pmol/mouse i.c.v.; morphine sulfate 100 mg/kg s.c.
[11] = test system: development of physical dependence in mice treated acutely with morphine; format: in vivo, mice (male Swiss-Webster)
delta opioid receptor = test: Delta antagonist potency/selectivity comparison (one assay)
mu opioid receptor [12] = conditions: rats; cited from earlier work
mu opioid receptor [13] = conditions: monkeys; cited from earlier work
mu opioid receptor [14] = conditions: dose used by DeLander et al.; cited from earlier work

Row | SMILES | increase of the ED50 of morphine sulfate vs control animals [1] [fold] | effect on development of tolerance [1] | effect on development of physical dependence [2] | effect on the antinociceptive activity of DAMGO (mu opioid receptors) | antinociceptive activity (antinociceptive activity) | effect on activity of mu opioid receptor agonists (mu opioid receptor [7]) | effect on activity of kappa opioid receptor agonists (kappa opioid receptor [8]) | antagonism of delta opioid receptor agonists (delta opioid receptors [9]) | other results
1 | Oc1ccc2c3c1O[C@H]1c4[nH]c5ccc(N=C=S)cc5c4C[C@@]4(O)[C@@H](C2)N(CC2CC2)CC[C@]314 [5'-NTII, naltrindole 5'-isothiocyanate] | 3 | the development of tolerance was suppressed substantially | appeared to block it completely | neither NTI nor 5'-NTII, at the dosages and injection protocol used, altered the anti-nociceptive activity of DAMGO | without any antinociceptive activity | minimal or no effect | minimal or no effect | highly effective antagonists against the activity of delta opioid receptor agonists | selectivity for delta opioid receptors (delta opioid receptors [3]; 10 nmol/mouse i.c.v.): high selectivity for delta opioid receptors; increase of ED50 of DSLET (delta opioid receptors [3]; 24 hours after 10 nmol/mouse i.c.v.): 50 fold; effect on ED50s of mu opioid receptor agonists (mu opioid receptor [4]): without affecting the ED50 s of mu or kappa opioid receptor agonists; effect on ED50s of kappa opioid receptor agonists (kappa opioid receptor [5]): without affecting the ED50 s of mu or kappa opioid receptor agonists; duration of action against delta agonists (delta opioid receptors [6]): more than 48 hr
2 | Oc1ccc2c3c1O[C@H]1c4[nH]c5ccccc5c4C[C@@]4(O)[C@@H](C2)N(CC2CC2)CC[C@]314 [NTI, 17-(cyclopropylmethyl)-6,7-dehydro-3,14β-dihydroxy-4,5α-epoxy-6,7-2',3'-indolmorphinan] | 2 | the development of tolerance was suppressed substantially | suppressed the development of dependence substantially | neither NTI nor 5'-NTII, at the dosages and injection protocol used, altered the anti-nociceptive activity of DAMGO | possesses antinociceptive activity | minimal or no effect | minimal or no effect | highly effective antagonists against the activity of delta opioid receptor agonists | effect on development of acute tolerance [10]: completely prevented the development of acute tolerance; times more naloxone required to precipitate withdrawal jumping ([11]; pretreated twice with NTI before inducing dependence): 45 times; times more naloxone required to precipitate withdrawal jumping ([11]; single dose of NTI 90 min before or at same time as 100 mg/kg morphine sulfate): about 10 times; duration of antagonist activity against delta opioid receptor agonists (delta opioid receptors [3]; NTI, b221: against the antinociceptive effect of DSLET): 18 to 24 h; maximum dose with selective antagonism at delta opioid receptors without detection of antinociceptive activity (antinociceptive activity; i.c.v.): 10 pmol/mouse; potency relative to ICI 174864 (delta opioid receptor; vs peptide delta antagonist ICI 174864): at least 500 times; selectivity relative to M8008 (delta opioid receptor; vs structurally unrelated opiate M8008): more selective than the structurally unrelated opiate M8008
3 | COC(=O)/C=C/C(=O)N[C@@H]1CC[C@@]2(O)[C@H]3Cc4ccc(O)c5c4[C@@]2(CCN3CC2CC2)[C@H]1O5 [β-FNA, β-funaltrexamine] | – | – | – | – | – | – | – | – | effect on development of morphine tolerance and dependence (mu opioid receptor [12]): inhibit the development of morphine tolerance and dependence in rats; withdrawal signs (mu opioid receptor [13]): induce long-lasting withdrawal signs in monkeys; effect on morphine-induced antinociception (mu opioid receptor [14]): significantly inhibited morphine-induced antinociception
